Experimental data: ChEMBL document CHEMBL5346934 (J Med Chem, 2023)

How the values were obtained:
[1] = tested on: Vaccinia virus; experiment: Antiviral activity against Vaccinia virus Copenhagen infected in African green monkey Vero cells measured after 4 days by colorimetric assay; assay type: functional, organism-based; conditions: Orthopoxvirus vaccinia, 96 h
[2] = tested on: Cowpox virus; experiment: Antiviral activity against Cowpox virus infected in Vero cells measured after 4 days by colorimetric assay; assay type: functional, organism-based; conditions: 96 h
[3] = tested on: Ectromelia virus; experiment: Antiviral activity against ectromelia virus K-1 infected in Vero cells measured after 4 days by colorimetric assay; assay type: functional, organism-based; conditions: K-1, Vero, 96 h
[4] = tested on: Cowpox virus; experiment: Antiviral activity against Cowpox virus Grishak infected in African green monkey Vero cells measured after 4 days by colorimetric assay; assay type: functional, organism-based; conditions: 96 h
[5] = tested on: Vaccinia virus; experiment: Antiviral activity against Vaccinia virus infected in African green monkey CV-1 cells assessed as reduction in virus-induced cytopathic effect incubated for 5 days by colorimetric analysis; assay type: functional, organism-based; conditions: Orthopoxvirus vaccinia, CV-1, 120 h
[6] = tested on: HEL; experiment: Cytotoxicity against human HEL cells assessed as reduction in cell growth; assay type: functional
[7] = tested on: Vaccinia virus; experiment: Antiviral activity against Vaccinia virus infected in human HEL cells; assay type: functional, organism-based; conditions: Orthopoxvirus vaccinia
[8] = tested on: Vaccinia virus; experiment: Antiviral activity against Vaccinia virus Copenhagen infected in human HFF cells assessed as assessed as reduction in virus-induced cytopathic effect incubated for 7 days by microscopic analysis; assay type: functional, organism-based; conditions: Orthopoxvirus vaccinia, 168 h
[9] = tested on: Vaccinia virus; experiment: Antiviral activity against Vaccinia virus infected in African green monkey BSC-1 cells; assay type: functional, organism-based, Orthopoxvirus vaccinia
[10] = tested on: Vaccinia virus; experiment: Antiviral activity against Vaccinia virus VG9 infected in African green monkey BSC-1 cells; assay type: functional, organism-based, Orthopoxvirus vaccinia
[11] = tested on: Vaccinia virus; experiment: Antiviral activity against Vaccinia virus infected in African green monkey Vero cells assessed as reduction virus induced cytopathic effect incubated for 24 hrs by MTT assay; assay type: functional, organism-based; conditions: Orthopoxvirus vaccinia
[12] = tested on: Vaccinia virus; experiment: Antiviral activity against Vaccinia virus IHD-J infected in BSC40 cells assessed as reduction in plaque formation measured after 72 hrs by crystal violet staining based analysis; assay type: functional, organism-based; conditions: Orthopoxvirus vaccinia, BSC-40, 72 h
[13] = Orthopoxvirus vaccinia, VG9, BSC-1

Compound: O=C(Nc1cccc(C(F)(F)F)c1)C(=O)NN1C(=O)C2C3C=CC(C4CC34)C2C1=O (centres undefined)
- IC50 [1]: 1.3 µg/mL

Compound: CC(=O)OCC(COC(C)=O)OCn1cnc2c(N)ncnc21
- EC50 [2]: 2000 nM

Compound: CC1(C)[C@@H]2CC[C@@]1(C)[C@@H](NC(=O)c1ccc(C(F)(F)F)cc1)C2
- IC50 [3]: 6900 nM
- IC50 [4]: 6100 nM
- IC50 [1]: 600 nM

Compound: COc1c(C)c2c(c(O)c1C/C=C(\C)CCC(=O)O)C(=O)OC2 [MYCOPHENOLIC ACID]
- EC50 [5]: 1000 nM

Compound: O=C1N(Nc2ccc(Br)c(Cl)c2)C(=O)C23C4C=CC5C4C4C(C=CC42)C153
- CC50 [6]: > 100000 nM
- IC50 [7]: 600 nM

Compound: CC1(C)[C@@H]2CC=C(CCNC(=O)C34CC5CC(CC(C5)C3)C4)[C@H]1C2
- IC50 [3]: 1600 nM
- IC50 [4]: 4100 nM
- IC50 [1]: 1800 nM

Compound: CCOc1ccc2c(c1)[C@H]1C=CC[C@H]1[C@H](c1ccccc1Cl)N2
- EC50 [8]: 13900 nM

Compound: Cc1cc(NN2C(=O)C34C5C=CC6C5C5C3C=CC5C64C2=O)ccc1[N+](=O)[O-]
- CC50 [6]: > 100000 nM
- IC50 [7]: 3000 nM

Compound: Nc1cc(OC[C@H](CO)OCP(=O)(O)O)nc(N)n1
- EC50 [2]: 46200 nM

Compound: COC(=O)Nc1nc2cc(C(=O)c3ccccc3)ccc2[nH]1 [MEBENDAZOLE]
- EC50 ([9]; Orthopoxvirus vaccinia, BSC-1): 5600 nM
- EC50 [10, 13]: 9200 nM

Compound: CCCCCCCCCCCCCCCCCCOCCOP1(=O)COCC(Cn2ccc(N)nc2=O)O1 (centres undefined)
- EC50 [11]: 1100 nM

Compound: O=C1N(Nc2ccc(Cl)c(Br)c2)C(=O)C23C4C=CC5C4C4C(C=CC42)C153
- CC50 [6]: > 100000 nM
- IC50 [7]: 160 nM

Compound: CC1(C)[C@@H]2CC=C(CNC(=O)C34CC5CC(CC(C5)C3)C4)[C@H]1C2
- IC50 [3]: 2700 nM
- IC50 [4]: 4700 nM
- IC50 [1]: 1700 nM

Compound: CC1(C)[C@@H]2CC=C(C(=O)NC34CC5CC(CC(C5)C3)C4)[C@H]1C2
- IC50 [3]: 1700 nM
- IC50 [4]: 7200 nM
- IC50 [1]: 2500 nM

Compound: CCCCCCCCCCOc1ccc(C(=O)NN2C(=O)C3C4C=CC(C5CC45)C3C2=O)cc1 (centres undefined)
- IC50 [1]: 1.7 µg/mL

Compound: CC(=O)C1=C2C=CCCN2C(=O)NC1c1ccccc1 (centres undefined)
- IC50 [11]: 5900 nM

Compound: O=C1N(Nc2ccc(Cl)cc2)C(=O)C23C4C=CC5C4C4C(C=CC42)C153
- CC50 [6]: > 100000 nM
- IC50 [7]: 8300 nM

Compound: CCCCCCCCCCCC[N+]12CC[N+](CC#CC[N+]34CC[N+](CCCCCCCCCCCC)(CC3)CC4)(CC1)CC2
- EC50 [5]: 100000 nM

Compound: COc1ccc(/C=C/C(=O)Nc2ccccc2C(=O)O)cc1OC [TRANILAST]
- EC50 ([9]; Orthopoxvirus vaccinia, BSC-1): 900 nM
- EC50 [10, 13]: 800 nM

Compound: O=C(NN1C(=O)C2C3C=CC(C4CC34)C2C1=O)c1ccc(O)c([N+](=O)[O-])c1 (centres undefined)
- IC50 [1]: 0.38 µg/mL

Compound: Fc1ccc(Nc2c(-c3ccccn3)nc3ccc(Cl)cn23)cc1
- EC50 [8]: 6500 nM

Compound: N=c1ccn2c(n1)O[C@H]1[C@H](O)[C@@H](CO)O[C@H]12 [ANCITABINE]
- EC50 [5]: 10000 nM

Compound: CO[C@H]1C[C@H](O[C@H]2CC[C@]3(C=O)[C@H]4CC[C@]5(C)[C@@H](C6=CC(=O)OC6)CC[C@]5(O)[C@@H]4CC[C@]3(O)C2)O[C@H](C)[C@H]1O [CYMARIN]
- EC50 [5]: 250 nM

Compound: CC1(C)[C@@H]2CC[C@@]1(C)[C@@H](NC(=O)c1ccc([N+](=O)[O-])cc1)C2
- IC50 [3]: 410 nM
- IC50 [4]: 1400 nM
- IC50 [1]: 30 nM

Compound: RAUWOLFIA SERPENTINA
- EC50 ([9]; bsc-1): 9200 nM
- EC50 ([10]; bsc-1): 9800 nM

Compound: Cc1ccc(C2Nc3ccccc3C(=O)N2c2ccccc2)s1 (centres undefined)
- EC50 [12]: 2200 nM

Compound: Nc1ccn(C[C@@H]2COP(=O)(O)CO2)c(=O)n1
- EC50 [2]: 48300 nM
- EC50 [11]: 50600 nM

Compound: CCCCCCCCCCCCCCCCCCOCCOP(=O)(O)CO[C@H](CO)Cn1ccc(N)nc1=O
- EC50 [11]: 200 nM

Compound: Cc1ccnc(NC(c2ccccc2F)c2ccc3cccnc3c2O)c1 (centres undefined)
- EC50 [8]: 2900 nM

Compound: O=C1N(Nc2ccc(Cl)c(Cl)c2)C(=O)C23C4C=CC5C4C4C(C=CC42)C153
- CC50 [6]: > 100000 nM
- IC50 [7]: 480 nM

Compound: Oc1ccc(NCc2ccccc2OCc2ccccc2)cc1
- EC50 [8]: 7100 nM

Compound: O=C1N(Nc2ccc([N+](=O)[O-])cc2)C(=O)C23C4C=CC5C4C4C(C=CC42)C153
- CC50 [6]: > 100000 nM
- IC50 [7]: 3000 nM

Compound: O=C(NN1C(=O)C2C3C=CC(C4CC34)C2C1=O)c1cc(Cl)cc(Cl)c1 (centres undefined)
- IC50 [1]: 0.95 µg/mL

Compound: O=C(NN1C(=O)C2C3C=CC(C4CC34)C2C1=O)c1cc(Br)cc(Br)c1O (centres undefined)
- IC50 [1]: 1.05 µg/mL
